Measured values from patent US20050267014A1, “Pharmaceutical composition comprising factor VII polypeptides and tranexamic acid” (Novo Nordisk HealthCare A/G, priority 2001, published 2005).

Experiments:
[1] = system: clots formed by normal human plasma; test: Clot lysis assay, normal human plasma diluted 10-fold, turbidity at 650 nm; type: biochemical; conditions: in the presence of 10 nM FVIIa
Procedure: Clot lysis assay: Normal human plasma diluted 10-fold with buffer (20 mM HEPES, 150 mM NaCl, 5 mM CaCl, pH 7.4) containing lapidated recombinant tissue factor (Innovin, Dade Behring, 2000-fold dilution), rFVIIa (Novo Nordisk A/S Bagsvaerd, Denmark, various concentrations) and t-PA (American Diagnostica, 8 nM) was added to 96-well ELISA plates and turbidity at 650 nm was measured over time at room temperature. Where indicated, Tranexamic acid (Sigma, various concentrations) was included.

whole human blood = test: Whole blood rotation thrombelastography (ROTEG) clot strength; conditions: tranexamic acid in addition to FVIIa, tPA 2 nM

NC[C@H]1CC[C@H](C(=O)O)CC1 [Tranexamic acid]
Tranexamic acid concentration at which prolongation of clot lysis time was optimal [1]: 1 µM
effect on clot lysis time ([1]; t-PA 8 nM): further prolongation of the clot lysis time
mechanical strength of the clot (whole human blood): increased the mechanical strength of the clot
overall survival time of the clot (whole human blood): increased
